Results taken from patent US20220008365A1, “Treating Intraocular Retinoblastoma with Inhibitors of Histone Modification” (Vanderbilt University, priority 2018, published 2022).
“Also recorded” adds a separate entry of the source.

Experiments:
[1] = system: human retinoblastoma cells; test: killing of human retinoblastoma cells in cell culture; assay type: cell-based; details: for killing of human retinoblastoma cells by a brief pulse of HDAC inhibitor: brief pulse exposure, multiple concentrations
Experimental: (§1) The present inventors have additionally determined the pharmacokinetics of belinostat when injected directly into the vitreous of the rabbit eye and have calculated its intraocular half-life in vivo. […] Specifically, once the PK curve of intravitreally-injected belinostat was determined and the half-life calculated, human retinoblastoma cells were incubated in cell culture in media containing varying concentrations of belinostat for a length of time equivalent to 5 intraocular half-lives, the media was then replaced with belinostat-free media and incubated for 7 days, and the number of surviving cells was then determined. Then, as an example, the present inventors back-calculated the initial intravitreal injection dose that would ensure that a concentration equal to or above the in vitro IC90 would be achieved even out to 5 half-lives, in vivo.

[2] = system: human WERI-Rb1 retinoblastoma xenografts (vitreous seeds); test: rabbit model of retinoblastoma vitreous seeds, intravitreal treatment, quantification of seed burden; assay type: in vivo; details: for reduction in tumor cells / tumor burden compared to saline: 3 weekly intravitreal injections (belinostat 350 μg; melphalan 25 μg), eyes harvested two weeks after final injection
Experimental: (§2) For the first small animal IAC model developed by the inventors and referenced above, the rabbit's dominant ophthalmic artery was endovascularly cannulated, and each drug was injected at various doses. For intravitreal experiments, 1-3 weekly injections of each drug were performed. For the assessment of ocular toxicity described above, the testing platform the inventors developed included a broad array of tests including assessment of retinal structure and function by electroretinography, photography, fluorescein angiography, OCT, and OCT-Angiography, both before and after treatment. Human WERI-Rb1 retinoblastoma xenografts were treated with either intravenous, intra-arterial, or intravitreal chemotherapy. Assessment of efficacy against vitreous seeds was by both direct quantification of seed burden (vitreous harvesting and cell counting) and by assessment of apoptosis induction by immunohistochemistry.
To determine efficacy and toxicity of intravitreal HDAC inhibitors for retinoblastoma treatment, vitreous seeds were generated in cyclosporine-immunosuppressed rabbits. 1,000,000 human WERI-Rb1 human retinoblastoma cells were injected into each eye. The seeds were allowed to grow for two weeks to form the types of “spherules” seen clinically with vitreous seeds. 350 μg belinostat injections were used (equivalent to approximately 700 μg in a human-sized eye). The right eye was injected with belinostat three times, weekly. The left eye was injected with saline three times, weekly. The eyes were harvested for analysis two weeks after the final injection, and subjected to the cell quantification and apoptosis induction assays described in the above paragraph.
To compare the efficacy of an embodiment of the present invention with melphalan treatment, rabbit eyes were treated with 3 weekly injections of 350 μg belinostat by local (intravitreal) injection as described above. The melphalan comparator group received 3 weekly injections of 25 μg melphalan (the clinically-used dose) by intravitreal injection. Eyes were harvested two weeks after the final injection. […]

[3] = system: rabbit eye (retinal function); test: retinal function by electroretinography after intravitreal injections; assay type: in vivo
Experimental: as §2
We next wanted to use the toxicity assessment platform that we have developed previously (described above) to compare the toxicity of belinostat (in accordance with the present invention) to current standard-of-care melphalan. As with the efficacy experiments, rabbits received either 3 injections (weekly) of belinostat 350 μg (the effective dose in our rabbit model), or else belinostat 700 μg (double the clinically-effective dose in our rabbit model), or else melphalan 25 μg (the current, clinically-used dose).

[4] = system: rabbit eye (retina); test: retinal histopathology after intravitreal injections; assay type: in vivo; details: 3 weekly intravitreal injections; belinostat 350 μg or 700 μg; melphalan 25 μg
Experimental: as §2
The retina looks just as healthy as the saline-treated control eye.

[5] = intraocular pharmacokinetics after local administration; assay type: in vivo, rabbit; details: local administration routes (intravitreal, intra-arterial)
Experimental: as §1

[6] = intra-arterial melphalan, patients; cited from earlier work

Nc1ccccc1NC(=O)c1ccc(CNC(=O)OCc2cccnc2)cc1 [etinostat]
killing of human retinoblastoma cells by a brief pulse of HDAC inhibitor [1]: can be killed by exposure to a brief pulse

Cc1[nH]c2ccccc2c1CCNCc1ccc(/C=C/C(=O)NO)cc1 [panobinostat]
killing of human retinoblastoma cells by a brief pulse of HDAC inhibitor [1]: can be killed by exposure to a brief pulse

O=C(/C=C/c1cccc(S(=O)(=O)Nc2ccccc2)c1)NO [belinostat, N hydroxy-3-(3-phenylsulfamoyl-phenyl)-acrylamide]
response of vitreous tumor seeds (photographs, FIG. 1) ([2]; 350 μg belinostat intravitreal, three times weekly, vs saline-treated left eye): eradication of retinoblastoma vitreous seeds | reduction in tumor cells / tumor burden compared to saline [2]: 95% | ERG parameters (retinal function) ([3]; intravitreal belinostat 700 μg (double the clinically-effective dose), 3 weekly injections): only mild worsening of ERG parameters | retinal functional loss and toxicity (A wave and B wave amplitude, FIG. 3) ([3]; rabbit, in vivo): (absence of) retinal functional loss | retinal toxicity or structural damage ([3]; rabbit, in vivo): no such retinal toxicity or structural damage | retinal architecture on histopathology [4]: retained normal retinal architecture and healthy-appearing retina; also recorded: no evidence of retinal degeneration | killing of human retinoblastoma cells by a brief pulse of HDAC inhibitor [1]: can be killed by exposure to a brief pulse | killing of human retinoblastoma cells in vitro ([1]; in vitro): effective for killing human retinoblastoma cells in vitro | intraocular concentrations [5]: very high intraocular concentrations, but of very brief duration

N[C@@H](Cc1ccc(N(CCCl)CCCl)cc1)C(=O)O [melphalan]
reduction in tumor cells / tumor burden compared to saline [2]: 93% | retinal toxicity or structural damage ([3]; intravitreal injection, dose not given): retinal structural damage | reduction in measured retinal function (electroretinography amplitudes) ([3]; intravitreal melphalan 25 μg, 3 weekly injections, across all parameters measured): 66-90% | retinal architecture on histopathology [4]: severe atrophy of the retina; also recorded: evidence of retinal degeneration | rates of complications [6]: ~40%
